Assay results as given in patent US10399945B2, “Tetrahydronaphthyl urea derivative” (MOCHIDA PHARMACEUTICAL CO., LTD., priority 2017, dated 2019).

Each molecule was assayed against Human TrkA Protein (Homo sapiens (Human), UniProt P04629) (assay: Evaluation of Binding Activity for Human TrkA Protein (TrkA LanthaScreen Eu Kinase Binding Assay)). Settings: TrkA enzyme, Kinase Tracer 236, TR-FRET, 60 minutes at room temperature.
Procedure: (Pharmacological Experimental Example 1): Evaluation of Binding Activity for Human TrkA Protein
Measurement was carried out using TrkA LanthaScreen (registered trademark) Eu Kinase Binding Assay (ThermoFisher SCIENTIFIC). To a 384 well plate (Corning), 2.5 μL of the test compound having various concentrations and diluted with Kinase buffer (ThermoFisher SCIENTIFIC) and 2.5 μL of 15 nM TrkA enzyme (ThermoFisher SCIENTIFIC) were added. Moreover, […] Eu-anti-His Tag antibody (ThermoFisher SCIENTIFIC) and 5 μL of 30 nM Kinase (registered trademark) Tracer 236 (ThermoFisher SCIENTIFIC) were added, followed by reaction at room temperature for 60 minutes. After the reaction, the fluorescence intensity of Europium (Emission wavelength 615 nm) and TR-FRET (Emission wavelength 665 nm) with an excitation wavelength of 340 nm were measured with EnVision 2100 (PerkinElmer) to calculate the fluorescence ratio as the amount of the test compound and the TrkA enzyme bonded. The inhibitory activity (IC50 value) of each test compound was calculated with the fluorescence ratio of the well to which a solvent was added instead of the test compound being 0% and the fluorescence ratio of the well without addition of the TrkA protein being 100%.
In Table 1, […] mean Compounds 1 to 62 synthesized in accordance with Examples 1 to 62 described later.

Chain of Human TrkA Protein (P04629 33-796): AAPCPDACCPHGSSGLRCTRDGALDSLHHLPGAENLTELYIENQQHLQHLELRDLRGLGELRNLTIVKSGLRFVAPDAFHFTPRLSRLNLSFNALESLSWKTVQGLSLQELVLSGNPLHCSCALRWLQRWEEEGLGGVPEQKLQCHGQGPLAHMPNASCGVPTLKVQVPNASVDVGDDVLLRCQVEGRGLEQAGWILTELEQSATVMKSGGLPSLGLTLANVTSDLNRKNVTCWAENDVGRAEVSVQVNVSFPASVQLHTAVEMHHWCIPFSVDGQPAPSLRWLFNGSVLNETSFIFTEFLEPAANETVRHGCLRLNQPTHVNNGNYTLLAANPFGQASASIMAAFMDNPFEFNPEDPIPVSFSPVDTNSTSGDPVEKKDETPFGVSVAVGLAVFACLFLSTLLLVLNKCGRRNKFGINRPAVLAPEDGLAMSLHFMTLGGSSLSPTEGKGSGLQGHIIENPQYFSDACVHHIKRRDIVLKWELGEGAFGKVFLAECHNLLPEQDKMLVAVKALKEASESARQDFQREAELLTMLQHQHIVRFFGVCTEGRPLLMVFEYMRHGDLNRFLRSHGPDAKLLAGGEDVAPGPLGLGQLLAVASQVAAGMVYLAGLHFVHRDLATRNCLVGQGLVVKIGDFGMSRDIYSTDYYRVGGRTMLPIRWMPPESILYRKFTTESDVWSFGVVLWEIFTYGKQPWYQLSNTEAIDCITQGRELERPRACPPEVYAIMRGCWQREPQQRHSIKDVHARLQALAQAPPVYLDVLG

Row | Compound | IC50
1 | Cc1ncc(-c2nc(C3CCOCC3)c(NC(=O)N[C@@H]3c4ccccc4C(C)(C)C[C@H]3O)cc2C)cn1 (racemic) [Compound 28, rac-1-((1R,2R)-2-hydroxy-4,4-dimethyl-1,2,3,4-tetrahydronaphthalen-1-yl)-3-(5-methyl-6-(2-methylpyrimidin-5-yl)-2-(tetrahydro-2H-pyran-4-yl)pyridin-3-yl)urea] | ≤ 50 nM
2 | Cc1cc(NC(=O)N[C@@H]2c3cc(F)c(F)cc3C(C)(C)C[C@H]2O)c(-c2ccccc2)nc1C(=O)NCC(C)(C)O (racemic) [Compound 42, rac-5-(3-((1R,2R)-6,7-difluoro-2-hydroxy-4,4-dimethyl-1,2,3,4-tetrahydronaphthalen-1-yl)ureido)-N-(2-hydroxy-2-methylpropyl)-3-methyl-6-phenylpicolinamide] | ≤ 50 nM
3 | Cc1cc(NC(=O)N[C@@H]2c3ccccc3C(C)(C)C[C@H]2O)c(-c2ccccc2)nc1C(N)=O (racemic) [Compound 24, rac-5-(3-((1R,2R)-2-hydroxy-4,4-dimethyl-1,2,3,4-tetrahydronaphthalen-1-yl)ureido)-3-methyl-6-phenylpicolinamide] | ≤ 50 nM
4 | Cc1cnc(C2CCOCC2)c(NC(=O)N[C@@H]2c3ccccc3C(C)(C)C[C@H]2O)c1 (racemic) [Compound 26, rac-1-((1R,2R)-2-hydroxy-4,4-dimethyl-1,2,3,4-tetrahydronaphthalen-1-yl)-3-(5-methyl-2-(tetrahydro-2H-pyran-4-yl)pyridin-3-yl)urea] | ≤ 50 nM
5 | CC1(C)C[C@@H](O)[C@H](NC(=O)Nc2cccnc2-c2ccccc2)c2cc(F)c(F)cc21 (racemic) [Compound 36, rac-1-((1R,2R)-6,7-difluoro-2-hydroxy-4,4-dimethyl-1,2,3,4-tetrahydronaphthalen-1-yl)-3-(2-phenylpyridin-3-yl)urea] | ≤ 50 nM
6 | Cc1cc(NC(=O)N[C@@H]2c3ccccc3C(C)(C)C[C@H]2O)c(C2CCOCC2)nc1-c1cn[nH]c1 (racemic) [Compound 30, rac-1-((1R,2R)-2-hydroxy-4,4-dimethyl-1,2,3,4-tetrahydronaphthalen-1-yl)-3-(5-methyl-6-(1H-pyrazol-4-yl)-2-(tetrahydro-2H-pyran-4-yl)pyridin-3-yl)urea] | ≤ 50 nM
7 | Cc1cc(NC(=O)N[C@@H]2c3ccccc3C(C)(C)C[C@H]2O)c(-c2ccccc2)nc1CO [Compound 8, 1-((1R,2R)-2-hydroxy-4,4-dimethyl-1,2,3,4-tetrahydronaphthalen-1-yl)-3-(6-(hydroxymethyl)-5-methyl-2-phenylpyridin-3-yl)urea] | ≤ 50 nM
8 | Cc1cc(NC(=O)N[C@@H]2c3ccccc3C(C)(C)C[C@H]2O)c(-c2ccccc2)nc1-c1cn[nH]c1 (racemic) [Compound 5, rac-1-((1R,2R)-2-hydroxy-4,4-dimethyl-1,2,3,4-tetrahydronaphthalen-1-yl)-3-(5-methyl-6-(1H-pyrazol-4-yl)-2-phenylpyridin-3-yl)urea] | ≤ 50 nM
9 | Cc1cc(NC(=O)N[C@@H]2c3ccccc3C(C)(C)C[C@H]2O)c(-c2ccccc2)nc1-c1cnc(C(F)(F)F)nc1 [Compound 15, 1-((1R,2R)-2-hydroxy-4,4-dimethyl-1,2,3,4-tetrahydronaphthalen-1-yl)-3-(5-methyl-2-phenyl-6-(2-(trifluoromethyl)pyrimidin-5-yl)pyridin-3-yl)urea] | ≤ 50 nM
10 | Cc1cc(NC(=O)N[C@@H]2c3ccccc3C(C)(C)C[C@H]2O)c(-c2ccccc2)nc1-c1cnc(O)nc1 [Compound 19, 1-((1R,2R)-2-hydroxy-4,4-dimethyl-1,2,3,4-tetrahydronaphthalen-1-yl)-3-(6-(2-hydroxypyrimidin-5-yl)-5-methyl-2-phenylpyridin-3-yl)urea] | ≤ 50 nM
11 | Cc1ncc(-c2nc(-c3ccccc3)c(NC(=O)N[C@@H]3c4cc(F)ccc4C(C)(C)C[C@H]3O)cc2C)cn1 (racemic) [Compound 34a] | ≤ 50 nM
12 | Cc1cc(NC(=O)N[C@@H]2c3ccccc3C(C)(C)C[C@H]2O)c(-c2ccccc2)nc1-c1cnc(C(C)(C)O)nc1 [Compound 21, 1-((1R,2R)-2-hydroxy-4,4-dimethyl-1,2,3,4-tetrahydronaphthalen-1-yl)-3-(6-(2-(2-hydroxypropan-2-yl)pyrimidin-5-yl)-5-methyl-2-phenylpyridin-3-yl)urea] | ≤ 50 nM
13 | Cc1cc(NC(=O)N[C@@H]2c3cc(F)c(F)cc3C(C)(C)C[C@H]2O)c(C2CCOCC2)nc1-c1cnc(O)nc1 (racemic) [Compound 62, rac-1-((1R,2R)-6,7-difluoro-2-hydroxy-4,4-dimethyl-1,2,3,4-tetrahydronaphthalen-1-yl)-3-(6-(2-hydroxypyrimidin-5-yl)-5-methyl-2-(tetrahydro-2H-pyran-4-yl)pyridin-3-yl)urea] | 50 to 1000 nM
14 | Cc1cnc(-c2ccccc2)c(NC(=O)N[C@@H]2c3ccc(Br)cc3C(C)(C)C[C@H]2O)c1 (racemic) [Compound 22, rac-1-((1R,2R)-6-bromo-2-hydroxy-4,4-dimethyl-1,2,3,4-tetrahydronaphthalen-1-yl)-3-(5-methyl-2-phenylpyridin-3-yl)urea] | ≤ 50 nM
15 | Cc1nnc(CNC(=O)c2nc(-c3ccccc3)c(NC(=O)N[C@@H]3c4cc(F)c(F)cc4C(C)(C)C[C@H]3O)cc2C)o1 (racemic) [Compound 41, rac-5-(3-((1R,2R)-6,7-difluoro-2-hydroxy-4,4-dimethyl-1,2,3,4-tetrahydronaphthalen-1-yl)ureido)-3-methyl-N-((5-methyl-1,3,4-oxadiazol-2-yl)methyl)-6-phenylpicolinamide] | ≤ 50 nM
16 | Cc1cc(NC(=O)N[C@@H]2c3ccccc3C(C)(C)C[C@H]2O)c(-c2ccccc2)nc1-c1cnn(C)c1 (racemic) [Compound 4, rac-1-((1R,2R)-2-hydroxy-4,4-dimethyl-1,2,3,4-tetrahydronaphthalen-1-yl)-3-(5-methyl-6-(1-methyl-1H-pyrazol-4-yl)-2-phenylpyridin-3-yl)urea] | ≤ 50 nM

Further lines, results first:

Row | IC50 | Compound
17 | ≤ 50 nM | Cc1cc(NC(=O)N[C@@H]2c3cc(F)c(F)cc3C(C)(C)C[C@H]2O)c(-c2ccccc2)nc1CO (racemic) [Compound 43, rac-1-((1R,2R)-6,7-difluoro-2-hydroxy-4,4-dimethyl-1,2,3,4-tetrahydronaphthalen-1-yl)-3-(6-(hydroxymethyl)-5-methyl-2-phenylpyridin-3-yl)urea]
18 | ≤ 50 nM | Cc1cc(NC(=O)N[C@@H]2c3cc(F)c(F)cc3C(C)(C)C[C@H]2O)c(-c2ccccc2)nc1-c1ccc(CO)cc1 (racemic) [Compound 45, rac-1-((1R,2R)-6,7-difluoro-2-hydroxy-4,4-dimethyl-1,2,3,4-tetrahydronaphthalen-1-yl)-3-(6-(4-(hydroxymethyl)phenyl)-5-methyl-2-phenylpyridin-3-yl)urea]
19 | ≤ 50 nM | Cc1cc(NC(=O)N[C@@H]2c3cc(F)c(F)cc3C(C)(C)C[C@H]2O)c(-c2ccccc2)nc1-c1ccc(CO)nc1 (racemic) [Compound 55, rac-1-((1R,2R)-6,7-difluoro-2-hydroxy-4,4-dimethyl-1,2,3,4-tetrahydronaphthalen-1-yl)-3-(6′-(hydroxymethyl)-3-methyl-6-phenyl-[2,3′-bipyridin]-5-yl)urea]
20 | ≤ 50 nM | Cc1cc(NC(=O)N[C@@H]2c3cc(F)c(F)cc3C(C)(C)C[C@H]2O)c(-c2ccccc2)nc1-c1ccn(C)n1 (racemic) [Compound 48a]
21 | ≤ 50 nM | Cc1cc(NC(=O)N[C@@H]2c3ccccc3C(C)(C)C[C@H]2O)c(-c2ccccc2)nc1-c1ccc(C#N)nc1 [Compound 13, 1-(6′-cyano-3-methyl-6-phenyl-[2,3′-bipyridin]-5-yl)-3-((1R,2R)-2-hydroxy-4,4-dimethyl-1,2,3,4-tetrahydronaphthalen-1-yl)urea]
22 | ≤ 50 nM | Cc1cc(NC(=O)N[C@@H]2c3cc(F)c(F)cc3C(C)(C)C[C@H]2O)c(-c2ccccc2)nc1-c1ccc(C#N)cc1 (racemic) [Compound 52, rac-1-(6-(4-cyanophenyl)-5-methyl-2-phenylpyridin-3-yl)-3-((1R,2R)-6,7-difluoro-2-hydroxy-4,4-dimethyl-1,2,3,4-tetrahydronaphthalen-1-yl)urea]
23 | ≤ 50 nM | Cc1cc(NC(=O)N[C@@H]2c3cc(F)c(F)cc3C(C)(C)C[C@H]2O)c(-c2ccccc2)nc1C(N)=O (racemic) [Compound 40, rac-5-(3-((1R,2R)-6,7-difluoro-2-hydroxy-4,4-dimethyl-1,2,3,4-tetrahydronaphthalen-1-yl)ureido)-3-methyl-6-phenylpicolinamide]
24 | ≤ 50 nM | Cc1cc(NC(=O)N[C@@H]2c3ccccc3C(C)(C)C[C@H]2O)c(-c2ccccc2)nc1-c1ccc(C#N)cc1 [Compound 16, 1-(6-(4-cyanophenyl)-5-methyl-2-phenylpyridin-3-yl)-3-((1R,2R)-2-hydroxy-4,4-dimethyl-1,2,3,4-tetrahydronaphthalen-1-yl)urea]
25 | ≤ 50 nM | Cc1cc(-c2nc(-c3ccccc3)c(NC(=O)N[C@@H]3c4cc(F)c(F)cc4C(C)(C)C[C@H]3O)cc2C)cnn1 (racemic) [Compound 49, rac-1-((1R,2R)-6,7-difluoro-2-hydroxy-4,4-dimethyl-1,2,3,4-tetrahydronaphthalen-1-yl)-3-(5-methyl-6-(6-methylpyridazin-4-yl)-2-phenylpyridin-3-yl)urea]
26 | ≤ 50 nM | Cc1ncc(-c2nc(-c3ccccc3)c(NC(=O)N[C@@H]3c4ccc(F)cc4C(C)(C)C[C@H]3O)cc2C)cn1 (racemic) [Compound 35a]
